Data from patent US5962493A, “2-mercaptobenzimidazole derivatives and antihyperlipemic agent or antiarteriosclerotic agent containing the same” (priority 1997, dated 1999).
Where two headings read alike, the source gives them in different places.

Legend:
[1] = system: mouse peritoneal macrophage; assay: In vitro tests on inhibition of foaming of macrophage with mouse peritoneal macrophage (cholesteryl ester formation); format: cell-based, mouse (female ICR); conditions: 16 hours at 37° C., read-out: CE (%) (cholesteryl ester-forming rate, ratio to the control)
Procedure: (1) In vitro tests on inhibition of foaming of macrophage with mouse peritoneal macrophage:
The necks of 15-week old female ICR mice (Japan SLC) were cut off. After blood-letting, Hanks buffer solution (Nissui Seiyaku Co., Ltd.) was injected into the abdominal cavity of each mouse. The abdomen was massaged and then the buffer solution was rapidly recovered, centrifuged at 1000 rotations for 5 minutes to collect the peritoneal macrophages. The peritoneal macrophases thus collected were then suspended in GIT medium (Wako Pure Chemical Industries, Ltd.), and the suspension was spread on a 24-hole microplate. After the cultivation at 37° C. in 5% CO2 for 2 hours, the medium was replaced with a Dulbecoo Modified Eagle's MEM medium (Nissui Seiyaku Co., Ltd.). After the cultivation at 37° C. in 5% CO2 for additional 16 hours, the following substances were added in the following order:
(1) subject: dissolved in DMSO (Wako Pure Chemical Industries, Ltd.)
PC: phosphatidyl choline (a product of Funakoshi)
PS: phosphatidyl serine (ditto)
DCP: dicetyl phosphate (ditto)
CHOL.: cholesterol (Sigma).
After further cultivation at 37° C. in 5% CO2 for 16 hours, the lipid fraction was extracted with chloroform and methanol. The lipid fraction thus extracted was dissolved in isopropyl alcohol, and the formed cholesteryl ester (CE) was determined by an enzymatic coloring method. The cholesteryl ester-forming rate of each compound was calculated in terms of the ratio thereof to the control. The cytotoxicity was examined by microscopic observation of the shape of the cell.
The pharmacological effects of the compounds given in Table 2 were evaluated in the same manner as that of Example 3.

[2] = system: total blood cholesterol; assay: Effect of reducing blood lipid of rabbit having high-cholesterol feed; format: in vivo, rabbit (male New Zealand white); conditions: 30 mg/kg/day mixed with high-cholesterol food, 14 days; based on the control; group of three rabbits
Procedure: (2) Effect of reducing blood lipid of rabit having high-cholesterol feed:
A high-cholesterol food (100 g/day/rabbit: ORC-4 of Oriental Yeast Co., Ltd. +0.5% cholesterol +0.5% olive oil) was given to each of male New Zealand white rabbits weighing about 2 kg for seven days to make them suffer from hypercholesterolemia.
In the next stage, the high-cholesterol food was still given to the rabbits and, in addition, 30 mg/kg/day/rabbit of the test compound (2) was continuously given in the form of a mixture thereof with the food to a group of three rabbits (test group) for 14 days. On the other hand, only the same high-cholesterol food as above was given in the equal dose to another group of three rabbits (control group).
After the continuous feeding for 14 days followed by fasting for one day, a small amount of the blood was taken from the parotid vein to determine the total blood cholesterol (latripo TC: a product of latron Co. Ltd.).

[3] = Acute Toxicity Test; set-up: species or system mouse (8-week ddy); conditions: mouse, in vivo; oral, 0.5% Tween 80 suspension, six 8-week ddy mice, observed for one month
From the text: The compound (2) was suspended in 0.5% Tween 80 solution.
The compound I-7 was suspended in 0.5% Tween 80 solution.

[4] = system: mouse peritoneal macrophage; conditions: dose 5 μM, microscopic observation

CCC(=O)n1c(SCCOCCSc2nc3ccccc3n2C(=O)CC)nc2ccccc21 [Compound (2)]
activity at 5 µM ([1]; Table 1, ratio to control): 7%
total blood cholesterol decreasing rate [2]: 25%
LD50 at 730 h [3]: ≥ 5000 mg/kg
Cytotoxicity ([4]; Table 1): none

c1ccc2[nH]c(SCCCCCSc3nc4ccccc4[nH]3)nc2c1 [Compound I-7, 1,5-bis(2-benzimidazoylthio)pentane]
LD50 at 730 h [3]: ≥ 5000 mg/kg

c1ccc2[nH]c(SCCCCCCCCSc3nc4ccccc4[nH]3)nc2c1 [IV-2, 1,8-bis(2-benzimidazoylthio)octane]
activity at 5 µM ([1]; Table 2, ratio to control): 28%
Cytotoxicity ([4]; Table 2): none
